Consider nine compounds from patent US9751878B2, “Tetrahydronaphthyridine somatostatin receptor 5 antagonists” (Takeda Pharmaceutical Company Limited, priority 2013, dated 2017).

Test [1] deals with Male KK-Ay/Ta mice, a type 2 diabetes model. Kind of test: Antidiabetic effect in mice (2). The format is in vivo. The conditions noted are these: 0.03% food admixture with CE-2 diet for 2 weeks; n=7. The procedure: Antidiabetic Effect in Mice (2)
Male KK-Ay/Ta mice (Clea Japan Inc.), a type 2 diabetes model, were used in this study. At the age of 7-week old, blood samples were collected from tail vein at 8:00 am, and animals were divided into separate groups (n=7) based on glycated hemoglobin (GHb), plasma glucose, insulin, triglyceride levels and body weight. The Compound of Example 35 (0.03% (weight % of the compound in the food admixture)) was administered by food admixture with CE-2 diet (Clea Japan Inc.) for 2 weeks. After 2 weeks of treatment, GHb was determined by auto-analyzer HLC-723G8 (TOSOH, Japan).

For a further test, the target named is T1, human SSTR5 (Homo sapiens, UniProt P35346).
T1 construct: expressed in transfected cells
Kind of test: Evaluation of human SSTR5 antagonist activity using intracellular cAMP concentration as index. The format is cell-based. The conditions noted are these: 1 μM test compound; CHO (dhfr-) cells stably expressing human SSTR5; 0.1 nM somatostatin 28, 0.3 μM forskolin; cAMP HTRF; read-out: Inhibition rate against SSTR5 at 1 μM. The procedure:
Evaluation of Human SSTR5 Antagonist Activity Using Intracellular cAMP Concentration as Index
The intracellular cAMP concentration was measured using HTRF cAMP dynamic 2 kit (Cisbio Bioassays). Each test compound diluted with an assay buffer (HBSS (Invitrogen Corp.) containing 5 mM HEPES (pH 7.5) (Invitrogen Corp.), 0.1% fatty-acid free BSA (Sigma-Aldrich Corp.), and 500 μM IBMX (Wako Pure Chemical Industries, Ltd.)) was added at a concentration of 2 μL/well to a 384-well white plate (Greiner Bio-One Co., Ltd.) to give the final concentration of 1 μM. A frozen stock of CHO (dhfr-) cells stably expressing the human SSTR5 gene (Accession No. NM_001053) was thawed in a thermostat bath of 37° C. and suspended in a subculture medium (MEM alpha (Wako Pure Chemical Industries, Ltd.), 10% dialyzed serum (Gemini Bio-Products), and 50 μg/mL gentamicin (Invitrogen Corp.). After centrifugation of the cell suspension, the cells were resuspended in an assay buffer and added at a concentration of 2 μL/well (about 4,000 cells/well) to the plate. The compound and the cells were incubated for 15 minutes, and then, an assay buffer containing 0.1 nM (final concentration) somatostatin 28 (Toray Research Center) and 0.3 μM (final concentration) forskolin (Wako Pure Chemical Industries, Ltd.) was added thereto at a concentration of 2 μL/well, followed by incubation at room temperature for 30 minutes. cAMP-d2 and anti-cAMP-cryptate were each added thereto at a concentration of 3 μL/well. The plate was left standing at room temperature for 60 minutes. Then, the fluorescence resonance energy transfer (FRET) intensity was measured using Multi-label reader Envision (PerkinElmer). The FRET intensity of the wells supplemented with the test compound group was converted to a cAMP concentration using a calibration curve prepared from the FRET intensity of a well group containing an assay buffer supplemented with an arbitrary concentration of cAMP. The inhibitory activity of each compound was calculated according to the following expression: Inhibitory activity (%)=(C−B)/(A−B)×100 A: cAMP concentration calculated from the wells supplemented with 0.3 μM forskolin B: cAMP concentration calculated from the wells supplemented with 0.3 μM forskolin and 0.1 nM somatostatin 28 C: cAMP concentration calculated from the wells supplemented with 0.3 μM forskolin, 0.1 nM somatostatin 28, and 1 μM test compound

Test [2] relates to high fat diet-fed male C57BL6J mice. Kind of test: Glucose tolerance test in mice (oral glucose tolerance test). It counts as in vivo. Particulars: 1 mg/kg oral, n=6. The procedure: Glucose Tolerance Test in Mice
Oral glucose tolerance test was performed in high fat diet-fed male C57BL6J mice (Clea Japan Inc.). 8 weeks old mice were fasted overnight and divided into separate groups (n=6) based on plasma glucose levels and body weight. Vehicle (0.5% (w/v) methylcellulose) or the compound of Example 72 (1 mg/kg) (suspended in vehicle) were orally given to animals and glucose was loaded (5 g/kg) 1 h after drug administration. Blood was collected from tail vein and blood glucose levels (mg/dL) were measured by ACCU-CHEK (Roche Inc.) at time 0 (just before glucose load), 10, 30, 60 and 120 min after glucose load.

Test [3] has as its system Male KK-Ay/Ta mice, a type 2 diabetes model. Kind of test: Antidiabetic effect in mice (1). Particulars: 10 mg/kg orally once a day for 2 weeks; n=8. It counts as in vivo. The procedure:
Antidiabetic Effect in Mice (1)
Male KK-Ay/Ta mice (Clea Japan Inc.), a type 2 diabetes model, were used in this study. At the age of 7-week old, blood samples were collected from tail vein at 8:00 am, and animals were divided into separate groups (n=8) based on glycated hemoglobin (GHb), plasma glucose, insulin, triglyceride levels and body weight. Vehicle (0.5% (w/v) methylcellulose) or the compound of Example 67 (10 mg/kg) (suspended in vehicle) were orally administered once a day for 2 weeks. After 2 weeks of treatment, GHb was determined by auto-analyzer HLC-723G8 (TOSOH, Japan).

A word on the inhibition: it is the drop in the measured response relative to a control, in per cent.

T1 sequence (P35346 whole entry): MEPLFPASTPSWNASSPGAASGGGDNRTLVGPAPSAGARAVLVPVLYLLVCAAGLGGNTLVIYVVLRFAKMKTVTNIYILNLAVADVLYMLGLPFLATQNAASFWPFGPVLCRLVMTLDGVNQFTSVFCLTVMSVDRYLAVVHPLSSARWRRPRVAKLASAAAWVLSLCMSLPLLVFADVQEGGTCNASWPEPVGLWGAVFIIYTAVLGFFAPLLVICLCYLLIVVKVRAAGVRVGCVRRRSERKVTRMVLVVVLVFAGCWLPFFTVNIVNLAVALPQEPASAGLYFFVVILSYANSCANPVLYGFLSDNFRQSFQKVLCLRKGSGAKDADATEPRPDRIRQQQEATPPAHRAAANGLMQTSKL

For `CCCc1nc2c(cc1C(=O)O)C(=O)N(C1CCN(Cc3cc(C4CC4)c(-c4ccc(F)cc4F)cc3OCC)CC1)CC2` [Example 35, 6-(1-((2-Cyclopropyl-5-ethoxy-2′,4′-difluorobiphenyl-4-yl)methyl)piperidin-4-yl)-5-oxo-2-propyl-5,6,7,8-tetrahydro-1,6-naphthyridine-3-carboxylic acid], the “Average of delta GHb (%)” value in test [1] is recorded as 0.60%.

For the compound `CCOc1cc(-c2ccc(F)cc2)c(C2CC2)cc1CN1CCC(N2CCc3nc(CC)c(C(=O)O)cc3C2=O)CC1` [Example 2, 6-(1-((2-Cyclopropyl-5-ethoxy-4′-fluorobiphenyl-4-yl)methyl)piperidin-4-yl)-2-ethyl-5-oxo-5,6,7,8-tetrahydro-1,6-naphthyridine-3-carboxylic acid], the inhibition at 1 µM at human SSTR5 came to 86%. On to `CCCc1nc2c(cc1C(=O)O)C(=O)N(C1CCN(Cc3cc(C4CC4)c(C4CCC4)cc3OCC)CC1)CC2` [Example 52, 6-(1-(4-Cyclobutyl-5-cyclopropyl-2-ethoxybenzyl)piperidin-4-yl)-5-oxo-2-propyl-5,6,7,8-tetrahydro-1,6-naphthyridine-3-carboxylic acid], for which the inhibition at 1 µM on human SSTR5 is 114%. With `CCc1nc2c(cc1C(=O)O)C(=O)N(C1CCN(Cc3cc(C4CC4)c(-c4ccc(F)cc4)c(F)c3OC(C)C)CC1)CC2` [Example 72, 6-(1-((6-Cyclopropyl-2,4′-difluoro-3-isopropoxybiphenyl-4-yl)methyl)piperidin-4-yl)-2-ethyl-5-oxo-5,6,7,8-tetrahydro-1,6-naphthyridine-3-carboxylic acid], the “blood glucose levels, 10 min” value in test [2] (10 min after glucose load (5 g/kg)) amounted to 283 mg/dL. The “blood glucose levels, 30 min” value in test [2] (30 min after glucose load (5 g/kg)) came out at 269 mg/dL. Also, in test [2] (60 min after glucose load (5 g/kg)), the “blood glucose levels, 60 min” value amounted to 267 mg/dL. In test [2] (120 min after glucose load (5 g/kg)), the “blood glucose levels, 120 min” value stood at 140 mg/dL. For the same compound, in test [2] (time 0 (just before glucose load, 1 h after drug administration)), the “blood glucose levels, 0 min” value was 123 mg/dL. In test [2] (blood glucose AUC, glucose load 5 g/kg), this compound yielded an AUCpre-120 min of 463 mg·h/dL. Besides, the inhibition at 1 µM on human SSTR5 was 97%. As to `CCCc1nc2c(cc1C(=O)O)C(=O)N(C1CCN(Cc3cc(C4CC4)c(-c4ccc(F)cc4)cc3OC)CC1)CC2` [Example 42, 6-(1-((2-Cyclopropyl-4′-fluoro-5-methoxybiphenyl-4-yl)methyl)piperidin-4-yl)-5-oxo-2-propyl-5,6,7,8-tetrahydro-1,6-naphthyridine-3-carboxylic acid], at human SSTR5, the inhibition at 1 µM came to 136%. With `CCCc1nc2c(cc1C(=O)O)C(=O)N(C1CCN(Cc3cc(C4CC4)c(-c4ccc(F)cc4)c(F)c3OCC)CC1)CC2` [Example 67, 6-(1-((6-Cyclopropyl-3-ethoxy-2,4′-difluorobiphenyl-4-yl)methyl)piperidin-4-yl)-5-oxo-2-propyl-5,6,7,8-tetrahydro-1,6-naphthyridine-3-carboxylic acid], the “Average of delta GHb (%)” value in test [3] amounted to 0.40%. On to `CCCc1nc2c(cc1C(=O)O)C(=O)N(C1CCN(Cc3cc(OC(C)C)c(-c4ccc(F)cc4)c(C4CC4)c3)CC1)CC2` [Example 63, 6-(1-((2-Cyclopropyl-4′-fluoro-6-isopropoxybiphenyl-4-yl)methyl)piperidin-4-yl)-5-oxo-2-propyl-5,6,7,8-tetrahydro-1,6-naphthyridine-3-carboxylic acid], for which the inhibition at 1 µM on human SSTR5 amounted to 97%. Same read-out and setting: to `CCOc1cc(CN2CCC(N3CCc4nc(CC)c(C(=O)O)cc4C3=O)CC2)cc(C2CC2)c1-c1ccc(F)cc1` [Example 45, 6-(1-((2-Cyclopropyl-6-ethoxy-4′-fluorobiphenyl-4-yl)methyl)piperidin-4-yl)-2-ethyl-5-oxo-5,6,7,8-tetrahydro-1,6-naphthyridine-3-carboxylic acid] belongs 99%. Still for that read-out and setting: to `CCCc1nc2c(cc1C(=O)O)C(=O)N(C1CCN(Cc3cc(C4CC4)c(C4CCC4)cc3OC(C)C)CC1)CC2` [Example 41, 6-(1-(4-Cyclobutyl-5-cyclopropyl-2-isopropoxybenzyl)piperidin-4-yl)-5-oxo-2-propyl-5,6,7,8-tetrahydro-1,6-naphthyridine-3-carboxylic acid] belongs 99%.
